Values after ≈ are worked out from the molar mass of the structure shown. Read-outs that look alike come from different tables or passages of the source.
Experiments:
Helicobacter pylori J99 = assay: Paper disc diffusion test, inhibition zone on agar plate; type: cell-based; conditions: blank disc 8 mm; for zone of inhibition at 4 mg/disc / zone of inhibition at 1 mg/disc: Helicobacter pylori, J99, read-out: inhibition growth diameter; for inhibition zone diameter (FIG. 5): amount per disc not given
Protocol: Helicobacter pylori J99 (HP J99) used in the embodiments of the present invention was purchased from Bioresource Collection and Research Center (BCRC). The cultivating condition is indicated as follows: the bacteria were inoculated onto CDC medium (CDC anaerobe 5% blood agar, BD) and then incubated at 37° C. for 48 to 72 hours. After incubation, the bacteria were further incubated under micro-aerobic condition (5% O2, 10% CO2, 85% N2). For preparation of solutions with the foregoing compound A or compound B, ethanol was used as solvent to prepare various suitable concentrations.
The test on the inhibitory effect of Helicobacter pylori with the compound A or compound B of the present invention was carried out as follows: Helicobacter pylori was first grown on a CDC agar plate containing sheep blood for 48 to 72 hours. The bacterial colony was scraped with a cotton swab or an inoculation loop and subsequently transferred into a normal saline solution (0.9% NaCl). The optical density was then adjusted to 2 Mcfarland (1-4×10^8/ml bacteria) to obtain a solution with Helicobacter pylori. Subsequently, the foregoing compound A or compound B was weighed out to prepare a series of concentrations (from 10 mg/ml to 100 mg/ml) of test solutions (40 μl) and then 40 μl of the solution were transferred onto blank paper discs. After dryness, the discs were separately stuck to a proper site on the agar plate. After incubation under micro-aerobic condition at 37° C. for 48 hours, observation was made if any inhibition zone emerged on the agar plate.
The compounds of the present invention, which were actually tested, included phenoxyacetic acid, 3,4-dihydrobenzoic acid, 3,5-diamino-benzoic acid, 4-aminophenylacetic acid, 4-nitrobenzoic acid, 2,4-dinitrobenzoic acid, 4-(dimethylamino)benzoic acid, 2-methoxyphenylacetic acid, 3-amino-4-methylbenzoic acid, 4-methylthiobenzoic acid, 4-bromphenylacetic acid, 1,4-cyclohexanedicarboxylic acid, phthalic acid, trans-cinnamic acid, 4-ethylbenzoic acid, phenylacetic acid, benzoic acid, 3-phenylpropionic acid, 4-phenylbutyric acid, 3,4-dimethoxybenzyl alcohol (1) and 4-indophenylboronic acid (2). Ethanol (3) and water (4) were used as control.

susceptible H. pylori = conditions: cited from earlier work; for increase of MIC90: ratio of pH 5.5 to 7.0
H. pylori J99 [1] = assay: Minimum inhibition concentration with different pH values; type: cell-based, Helicobacter pylori; conditions: for MIC90: Helicobacter pylori; for MIC: pH 6.0 to pH 7.0, no change observed
H. pylori J99 [2] = assay: Minimal bactericidal concentration (MBC); type: cell-based; conditions: Helicobacter pylori, kills 99.9% of bacteria of control group, 37° C., 1 to 2 hours
Protocol: Minimal bactericidal concentration (MBC) was determined by incubating test bacteria with different doses of test compounds for a period of time. Subsequently, the solutions underwent serial dilutions and the bacteria were grown on the agar plate by plate coating. At this moment, the concentration of test compound lost its inhibitory ability because of being diluted via serial dilutions and plate coating and it could be seen from the clear bacterial solution if the bacteria were dead. If bacteria growth was inhibited by the concentration of test compound, the bacteria might continue to grow after the abovementioned treatment and appeared in the form of colonies. In an embodiment of the present invention, H. pylori J99 were pre-cultivated for two days and colonies were scraped and suspended in saline solution. The bacterial concentration was then adjusted to 2 McFarland. After addition of suitable concentrations of benzoic acid and phenylacetic acid and incubation at 37° C. for 1 to 2 hours, the bacterial suspension underwent serial dilutions. 100 μl aliquots were taken from each suspension and applied on CDC plates. The plates were incubated under micro-aerobic condition at 37° C. for two days. The number of bacterial colonies was noted down and the concentration of test compound, that is able to kill 99.9% of bacteria of control group, was used as minimal bactericidal concentration.

Question: Which zone of inhibition at 4 mg/disc (Helicobacter pylori J99; 4 mg/disc) does the source give for `O=C(O)C1CCC(C(=O)O)CC1` (stereo not drawn) [1,4-cyclohexanedicarboxylic acid] here?
Answer: 12 mm

Question: Which inhibition growth diameter (Helicobacter pylori J99; 4 mg/disc) does the source give for `O=C(O)c1ccc([N+](=O)[O-])cc1[N+](=O)[O-]` [2,4-dinitrobenzoic acid] here?
Answer: 33 mm

Question: Which zone of inhibition at 4 mg/disc (Helicobacter pylori J99; 4 mg/disc) does the source give for `COc1ccccc1CC(=O)O` [2-methoxyphenylacetic acid] here?
Answer: 16 mm

Question: What does the source list for `COc1ccc(CO)cc1OC` [3,4-dimethoxybenzyl alcohol]?
Answer: zone of inhibition at 4 mg/disc (Helicobacter pylori J99; 4 mg/disc): 20 mm; inhibition zone diameter (FIG. 5) (Helicobacter pylori J99): 20 mm

Question: For `Nc1cc(N)cc(C(=O)O)c1` [3,5-diaminobenzoic acid], which zone of inhibition at 4 mg/disc (Helicobacter pylori J99; 4 mg/disc) is on record?
Answer: 12 mm

Question: Which zone of inhibition at 4 mg/disc (Helicobacter pylori J99; 4 mg/disc) does the source give for `Cc1ccc(C(=O)O)cc1N` [3-amino-4-methylbenzoic acid] here?
Answer: 14 mm

Question: For `O=C(O)CCc1ccccc1` [3-phenylpropionic acid], which zone of inhibition at 1 mg/disc (Helicobacter pylori J99; 1 mg/disc) is on record?
Answer: 14 mm

Question: What about the zone of inhibition at 4 mg/disc (Helicobacter pylori J99; 4 mg/disc) of the same molecule?
Answer: 34 mm

Question: Which zone of inhibition at 4 mg/disc (Helicobacter pylori J99; 4 mg/disc) does the source give for `CN(C)c1ccc(C(=O)O)cc1` [4-(dimethylamino)benzoic acid] here?
Answer: 26 mm

Question: For `Nc1ccc(CC(=O)O)cc1` [4-aminophenylacetic acid], which zone of inhibition at 4 mg/disc (Helicobacter pylori J99; 4 mg/disc) is on record?
Answer: 12 mm

Question: With `O=C(O)Cc1ccc(Br)cc1` [4-bromphenylacetic acid] as the molecule, how does the inhibition growth diameter (Helicobacter pylori J99; 1 mg/disc) read?
Answer: 16 mm

Question: And the inhibition growth diameter (Helicobacter pylori J99; 4 mg/disc)?
Answer: 35 mm

Question: With `CCc1ccc(C(=O)O)cc1` [4-ethylbenzoic acid] as the molecule, how does the zone of inhibition at 1 mg/disc (Helicobacter pylori J99; 1 mg/disc) read?
Answer: 30 mm

Question: With `OB(O)c1ccc(I)cc1` [4-indophenylboronic acid] as the molecule, how does the inhibition growth diameter (Helicobacter pylori J99; 1 mg/disc) read?
Answer: 35 mm

Question: What about the “inhibition zone diameter (FIG. 5)” value (Helicobacter pylori J99) of the same molecule?
Answer: 35 mm

Question: Which zone of inhibition at 1 mg/disc (Helicobacter pylori J99; 1 mg/disc) does the source give for `Cc1ccc(C(O)=S)cc1` [4-methylthiobenzoic acid] here?
Answer: 18 mm

Question: What about the zone of inhibition at 4 mg/disc (Helicobacter pylori J99; 4 mg/disc) of the same molecule?
Answer: 40 mm

Question: For `O=C(O)c1ccc([N+](=O)[O-])cc1` [4-nitrobenzoic acid], which zone of inhibition at 1 mg/disc (Helicobacter pylori J99; 1 mg/disc) is on record?
Answer: 70 mm

Question: Which zone of inhibition at 4 mg/disc (Helicobacter pylori J99; 4 mg/disc) does the source give for `O=C(O)CCCc1ccccc1` [4-phenylbutyric acid] here?
Answer: 28 mm

Question: What does the source list for `CC1(C)S[C@@H]2[C@H](NC(=O)[C@H](N)c3ccccc3)C(=O)N2[C@H]1C(=O)O` [Ampicillin]?
Answer: MIC90 (susceptible H. pylori; pH 5.5): 0.5 mg/L (≈ 1.43 µM); MIC90 (susceptible H. pylori; pH 6.0): 0.25 mg/L (≈ 0.715 µM); MIC90 (susceptible H. pylori; pH 7.5): 0.06 mg/L (≈ 0.172 µM)

Question: With `O=C(O)c1ccccc1` [Benzoic acid] as the molecule, how does the MIC90 (H. pylori J99 [1]; J99, pH 6) read?
Answer: 0.06 µg/mL (≈ 0.491 µM)

Question: What about the MIC90 (H. pylori J99 [1]; J99, pH 6.5) of the same molecule?
Answer: 0.06 µg/mL (≈ 0.491 µM)

Question: What about the MIC90 (H. pylori J99 [1]; J99, pH 7) of the same molecule?
Answer: 0.06 µg/mL (≈ 0.491 µM)

Question: What about the MIC (H. pylori J99 [1]) of the same molecule?
Answer: 0.06

Question: What about the zone of inhibition at 4 mg/disc (Helicobacter pylori J99; 4 mg/disc) of the same molecule?
Answer: 24 mm

Question: What about the MBC (H. pylori J99 [2]) of the same molecule?
Answer: 500 µg/mL (≈ 4090 µM)

Question: With `O=C([O-])CC(O)(CC(=O)[O-])C(=O)[O-].O=C([O-])CC(O)(CC(=O)[O-])C(=O)[O-].[Bi+3].[K+].[K+].[K+]` [Bismuth subcitrate] as the molecule, how does the MIC90 (susceptible H. pylori; pH 6.0) read?
Answer: 8 mg/L

Question: And the MIC90 (susceptible H. pylori; pH 7.5)?
Answer: 16 mg/L

Question: For `CC1=C(C(=O)O)N2C(=O)[C@@H](NC(=O)[C@H](N)c3ccccc3)[C@H]2SC1` [Cefalexin], which MIC90 (susceptible H. pylori; pH 5.5) is on record?
Answer: 32 mg/L (≈ 92.1 µM)

Question: What about the MIC90 (susceptible H. pylori; pH 6.0) of the same molecule?
Answer: 16 mg/L (≈ 46.1 µM)

Question: What about the MIC90 (susceptible H. pylori; pH 7.5) of the same molecule?
Answer: 2 mg/L (≈ 5.76 µM)

Question: Which MIC90 (susceptible H. pylori; pH 5.5) does the source give for `O=C(O)c1cn(C2CC2)c2cc(N3CCNCC3)c(F)cc2c1=O` [Ciprofloxacin] here?
Answer: 2 mg/L (≈ 6.04 µM)

Question: And the MIC90 (susceptible H. pylori; pH 6.0)?
Answer: 0.5 mg/L (≈ 1.51 µM)

Question: And the MIC90 (susceptible H. pylori; pH 7.5)?
Answer: 0.12 mg/L (≈ 0.362 µM)

Question: Which MIC90 (susceptible H. pylori; pH 5.5) does the source give for `CC[C@H]1OC(=O)[C@H](C)[C@@H](O[C@H]2C[C@@](C)(OC)[C@@H](O)[C@H](C)O2)[C@H](C)[C@@H](O[C@@H]2O[C@H](C)C[C@H](N(C)C)[C@H]2O)[C@](C)(OC)C[C@@H](C)C(=O)[C@H](C)[C@@H](O)[C@]1(C)O` [Clarithromycin] here?
Answer: 0.25 mg/L (≈ 0.334 µM)

Question: What about the MIC90 (susceptible H. pylori; pH 6.0) of the same molecule?
Answer: 0.06 mg/L (≈ 0.0802 µM)

Question: And the MIC90 (susceptible H. pylori; pH 7.5)?
Answer: 0.03 mg/L (≈ 0.0401 µM)

Question: And the “increase of MIC90” value (susceptible H. pylori)?
Answer: eight

Question: For `CC[C@H]1OC(=O)[C@H](C)[C@@H](O[C@H]2C[C@@](C)(OC)[C@@H](O)[C@H](C)O2)[C@H](C)[C@@H](O[C@@H]2O[C@H](C)C[C@H](N(C)C)[C@H]2O)[C@](C)(O)C[C@@H](C)C(=O)[C@H](C)[C@@H](O)[C@]1(C)O` [Erythromycin], which MIC90 (susceptible H. pylori; pH 5.5) is on record?
Answer: 8 mg/L (≈ 10.9 µM)

Question: What about the MIC90 (susceptible H. pylori; pH 6.0) of the same molecule?
Answer: 2 mg/L (≈ 2.73 µM)

Question: What about the MIC90 (susceptible H. pylori; pH 7.5) of the same molecule?
Answer: 0.06 mg/L (≈ 0.0818 µM)

Question: Which MIC90 (susceptible H. pylori; pH 5.5) does the source give for `Cc1ncc([N+](=O)[O-])n1CCO` [Metronidazole] here?
Answer: 2 mg/L (≈ 11.7 µM)

Question: What about the MIC90 (susceptible H. pylori; pH 6.0) of the same molecule?
Answer: 2 mg/L (≈ 11.7 µM)

Question: And the MIC90 (susceptible H. pylori; pH 7.5)?
Answer: 2 mg/L (≈ 11.7 µM)

Question: Which zone of inhibition at 4 mg/disc (Helicobacter pylori J99; 4 mg/disc) does the source give for `O=C(O)COc1ccccc1` [Phenoxyacetic acid] here?
Answer: 17 mm

Question: For `O=C(O)Cc1ccccc1` [Phenylacetic acid], which MIC90 (H. pylori J99 [1]; J99, pH 6.5, read-out: MIC90) is on record?
Answer: 0.125 µg/mL (≈ 0.918 µM)

Question: What about the MIC90 (H. pylori J99 [1]; J99, pH 7) of the same molecule?
Answer: 0.125 µg/mL (≈ 0.918 µM)

Question: What about the MIC90 (H. pylori J99 [1]; J99, pH 6.0, read-out: MIC90) of the same molecule?
Answer: 0.125 µg/mL (≈ 0.918 µM)

Question: What about the MIC (H. pylori J99 [1]) of the same molecule?
Answer: 0.125

Question: And the zone of inhibition at 4 mg/disc (Helicobacter pylori J99; 4 mg/disc)?
Answer: 22 mm

Question: What about the MBC (H. pylori J99 [2]) of the same molecule?
Answer: 1000 µg/mL (≈ 7340 µM)

Question: Which zone of inhibition at 1 mg/disc (Helicobacter pylori J99; 1 mg/disc) does the source give for `O=C(O)/C=C/c1ccccc1` [Trans-cinnamic acid] here?
Answer: 25 mm

Question: For `CC1(C)S[C@@H]2[C@H](NC(=O)[C@H](N)c3ccc(O)cc3)C(=O)N2[C@H]1C(=O)O` [amoxicillin], which “increase of MIC90” value (susceptible H. pylori) is on record?
Answer: eight

Question: With `O=C(O)c1ccccc1C(=O)O` [phthalic acid] as the molecule, how does the zone of inhibition at 4 mg/disc (Helicobacter pylori J99; 4 mg/disc) read?
Answer: 12 mm

Question: With Penicillin as the molecule, how does the MIC90 (susceptible H. pylori; pH 5.5) read?
Answer: 0.5 mg/L

Question: And the MIC90 (susceptible H. pylori; pH 6.0)?
Answer: 0.5 mg/L

Question: What about the MIC90 (susceptible H. pylori; pH 7.5) of the same molecule?
Answer: 0.03 mg/L
